According to patent US12024506B2, “Compounds” (Oxford University Innovation Limited, priority 2018, dated 2024):
Entries after “also recorded” stand apart in the source; their conditions may differ.

Experiments:
Format in all cases: cell-based
[1] = system: H358 cells (ATCC CRL-5807); experiment: Cell viability assay 1 (CellTiter-Glo), H358 cells; conditions: Homo sapiens, NCI-H358, 48 h, first value of the cell, read-out: Cell Viability H358 (concentration that decreases cell viability by 50%)
Procedure, shortened: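 H358 cells were grown in RPMI-1640 with 10% FCS and 2 mM L-glutamine, plated at 5000 cells/well and allowed to adhere overnight. Compound was added in 0.5% DMSO final for 48 h at 37° C. Viability was read by CellTiter-Glo luminescence, with the 50% viability-reducing concentration derived from dose-response curves.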

[2] = system: DLD1 cells (ATCC CCL-221); experiment: Cell viability assay 1 (CellTiter-Glo), DLD1 cells; conditions: Homo sapiens, DLD-1 cells, 48 h, second value of the cell, read-out: Cell Viability DLD-1 (concentration that decreases cell viability by 50%)
Procedure, shortened: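 DLD1 cells grown in RPMI-1640 with 10% FCS, 2 mM L-glutamine, 37 °C, 5% CO2, plated overnight then exposed to compound (0.5% DMSO) for 48 h. Viability by CellTiter-Glo luminescence; value is concentration reducing viability by 50% from dose-response curves.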

[3] = molecular target: T1, KRASG12D interaction with PI3Kα, PI3Kγ, CRAF RBD, RALGDS RA (Homo sapiens, UniProt P01116, G12D); experiment: BRET2 cell assay, KRAS G12D-effector interaction; conditions: HEK293T cells, 5, 10 and 20 μM, 20 h
T1 construct: expressed in transfected cells; host or cells: HEK293T
Description: (§1) The BRET ratio corresponds to the light emitted by the GFP2 acceptor constructs (515 nm±30) upon addition of Coelenterazine 400a divided by the light emitted by the RLuc8 donor constructs (410 nm±80). The normalized BRET ratio is the BRET ratio normalized to the DMSO negative and calculated as follows: (BRETcompound/BRETDMSO)×100, where BRETcompound corresponds to the BRET ratio for the compound-treated cells, BRETDMSO to the DMSO-treated cells. Each experiment was repeated at least three times. Statistical analyses were performed using a one-way ANOVA followed by Dunnett's post-tests (*P<0.05, **P<0.01, ***P<0.001, ****P<0.0001). Where error bars are presented, they correspond to mean values±SD of biological repeats (a-c).
(§2) 650,000 HEK293T were seeded in each well of a 6 well plate. 24 hours later, cells were transfected with an appropriated BRET-based RAS biosensor (i.e. RAS-effector) using Lipofectamine 2000 transfection reagent (Thermo-Fisher). […] The final concentrations in the cells were 0, 5, 10 and 20 µM (therefore the intermediate 10× concentrations were 0, 50, 100 and 200 μM. 10 μL of 10× compounds were added in each well of the 96 well plate to 0, 5, 10 and 20 µM final concentrations (with final 0.2% DMSO each). Quadruplicates were performed for each point. Cells were left for an additional 20 hours at 37° C. before the BRET2 signal reading directly after addition of Coelenterazine 400a substrate (10 µM final) to cells (Cayman Chemicals, cat #16157). BRET2 reading was carried out on an Envision instrument (2103 Multilabel Reader, PerkinElmer) with the BRET2 Dual Emission optical module (515 nm±30 and 410 nm±80; PerkinElmer).
(§3) The ability of Example compound 56 to inhibit RAS-effector PPI using the above cell-based RAS-effector BRET2 assay was investigated. […] We determined the effect of compound 56 (labelled Abd-7) on the interaction of KRAS^G12D and with PI3Kα and PI3Kγ, CRAF RAS-binding domain (RBD) and RALGDS RAS-associating domain (RA) compared with the low affinity Reference Compound Abd-2 FIG. 1a). […]

[4] = molecular target: T2, HRASG12V interaction with PI3K, CRAF, RALGDS (Homo sapiens, UniProt P01112, G12V); experiment: BRET2 cell assay, HRAS G12V-effector interaction; conditions: HEK293T cells, 5, 10 and 20 μM, 20 h
T2 construct: expressed in transfected cells; host or cells: HEK293T
Description: as §1
HEK293T cells were transfected 24 hr with plasmids expressing the NRAS Q61H […] and HRAS G12V (B, D) biosensors together with the indicated RBDs of PI3K, CRAF and RALGDS (A, B) or full-length CRAF. […]
as §2, with “plate.” for “plate. 24 hours later, cells were transfected with an appropriated BRET-based RAS biosensor (i.e. RAS-effector) using Lipofectamine 2000 transfection reagent (Thermo-Fisher).”
as §3

Compound	IC50 [1]	IC50 [2]	Effect on BRET signal, KRAS G12D/effector interactions [3]	Effect on BRET signal, HRAS G12V/effector interactions [4]	Effect on BRET signal, KRAS G12D/effector interactions ([3]; formate salt)	Effect on BRET signal, HRAS G12V/effector interactions ([4]; formate salt)
COc1nc(-c2cccc3c2OCCO3)ccc1Nc1ccc(CN(C)C)cc1 [compound 56, [6-(2,3-Dihydro-benzo[1,4]dioxin-5-yl)-2-methoxy-pyridin-3-yl]-(4-dimethylaminomethyl-phenyl)-amine]	12 µM	8 µM	reduces the BRET signal	interferes with all mutant RAS family member PPIs	–	–
COc1cc(-c2cccc3c2OCCO3)ccc1Nc1cccc(CN(C)C)c1.O=CO [compound 72, [4-(2,3-Dihydro-benzo[1,4]dioxin-5-yl)-2-methoxy-phenyl]-(3-dimethylaminomethyl-phenyl)-amine formate salt]	15.3 µM	15.4 µM	–	–	decreases KRAS G12D/effector domain interactions in a dose-dependent manner; also recorded: dose response reduction in BRET signal	inhibits; also recorded: disturbs the BRET2 signal in dose response manner
